± gives the expanded uncertainty stated by the source.

A short description of the data set: cn = amount concentration of the nth substance listed, in mol/dm3. Conditions: 298.15 K, 101 kPa, Liquid, c1 = 0.1; for speed of sound: Sing-around technique in a fixed-path interferometer; for mass density: Vibrating tube method.

With `CCCCCCCCCCCC[N+](C)(C)C.[Br-]` [dodecyltrimethylammonium bromide] + O, the speed of sound (usually how fast a sound wave travels through the sample) was 1502 ± 1.2 m/s and the mass density (usually mass per unit of volume) is recorded as 998.575 ± 0.11 kg/m3.

As to `CCCCCCCCCCCCCC[N+](C)(C)C.[Br-]` [tetradecyltrimethylammonium bromide] + O, the speed of sound is 1499.5 ± 1.2 m/s and the mass density turned out to be 998.003 ± 0.11 kg/m3.

The values are drawn from the NIST ThermoML archive (doi:10.1016/j.jct.2013.11.001).
